Drawing on US10125118B2, “Heteroaryl compounds and their use as therapeutic drugs” (Dong-A Socio Holdings Co., Ltd., priority 2015, dated 2018), this text covers IC50 and GI50 for 17 compounds.

Where two headings read alike, the source gives them in different places. A value given as a limit tells only on which side of the number the result lay.

In experiment [1] the target is human c-MER catalytic domain (Homo sapiens (Human), UniProt Q12866). Description: LanthaScreen TR-FRET kinase assay, c-MER.
Chain of human c-MER catalytic domain (Q12866 587-858): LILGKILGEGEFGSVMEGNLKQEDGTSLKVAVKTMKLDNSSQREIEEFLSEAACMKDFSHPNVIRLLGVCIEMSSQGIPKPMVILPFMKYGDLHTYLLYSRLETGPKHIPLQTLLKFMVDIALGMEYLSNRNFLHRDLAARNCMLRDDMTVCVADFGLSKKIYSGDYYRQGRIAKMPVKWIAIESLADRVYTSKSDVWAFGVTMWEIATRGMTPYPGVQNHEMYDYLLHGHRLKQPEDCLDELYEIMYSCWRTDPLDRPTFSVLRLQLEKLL
In experiment [2] the test system is CD8-MerTK in Ba/F3-CDM cells. Description: In cell MER kinase assay, Ba/F3-CDM cell proliferation without IL-3 (Celltiter-Glo). The class given is cell-based, murine. Conditions: 48 hours compound treatment, read-out: Cell growth inhibition (GI50). The essentials: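 Ba/F3 cells, IL-3-dependent, transfected with CD8-MerTK and grown without IL-3 in DMEM/10% FBS. IL-3-supplemented Ba/F3 cells run in parallel as a cytotoxicity control.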

Setting [3] is: read-out: Mer TK inhibition (IC50), Biochemical IC50, TR-FRET, 10 uM ATP.

What is called IC50 is the concentration at which inhibition is half-maximal. Broadly, the GI50 is the concentration that inhibits growth by half. `Cc1ccc(CO[C@H]2CCC[C@@H]2NC(=O)c2cc(-c3ccc(C(=O)NC4CCN(C)CC4)cc3)cnc2N)cc1C` [Example 318, 2-amino-N-((1S,2S)-2-((3,4-dimethylbenzyl)oxy)cyclopentyl)-5-(4-((1-methylpiperidin-4-yl)carbamoyl)phenyl)nicotinamide]: in experiment [1] (setting [3]), the IC50 was less than 10 nM. Moreover, the GI50 in experiment [2] lay within 500 to 1000 nM.

For the compound `CN1CCN(Cc2ccc(-c3ccc(CO[C@H]4CCC[C@@H]4NC(=O)c4cc(-c5ccc(F)cc5)cnc4N)cc3)cc2)CC1` [Example 363, 2-amino-5-(4-fluorophenyl)-N-((1S,2S)-2-((4′-((4-methylpiperazin-1-yl)methyl)-[1,1′-biphenyl]-4-yl)methoxy)cyclopentyl)nicotinamide], the IC50 in experiment [1] (setting [3]) is less than 10 nM. For the same compound, the GI50 in experiment [2] was in the range of 100 to 500 nM.

Consider `CC(c1ccc(-c2ccc(CO[C@H]3CCC[C@@H]3NC(=O)c3cc(C#N)cnc3N)cc2)cc1)N1CCN(C)CC1` (stereo partly drawn) [Example 233, 2-amino-5-cyano-N-((1S,2S)-2-((4′-(1-(4-methylpiperazin-1-yl)-ethyl)-[1,1′-biphenyl]-4-yl)methoxy)cyclopentyl)nicotinamide], for which the IC50 in experiment [1] (setting [3]) is less than 10 nM. For the same compound, the 50% growth inhibitory concentration (GI50) in experiment [2] is 100 to 500 nM.

Consider `CN1CCN(Cc2ccc(-c3ccc(CO[C@H]4CCC[C@@H]4NC(=O)c4cc(-c5cc(F)nc(F)c5)cnc4N)cc3)cc2)CC1` [Example 384], for which the IC50 in experiment [1] (setting [3]) was less than 10 nM. For the same compound, the GI50 in experiment [2] was less than 100 nM.

As for `CN1CCN(Cc2ccc(-c3ccc(CO[C@H]4CCC[C@@H]4NC(=O)c4cc(-c5ccc(F)nc5)cnc4N)cc3)cc2)CC1` [Example 386, 6-amino-6′-fluoro-N-((1S,2S)-2-((4′-((4-methylpiperazin-1-yl)methyl)-[1,1′-biphenyl]-4-yl)methoxy)cyclopentyl)-[3,3′-bipyridine]-5-carboxamide], the IC50 in experiment [1] (setting [3]) was less than 10 nM. Moreover, the GI50 in experiment [2] was less than 100 nM.

With `Cc1cc(-c2ccc(CO[C@H]3CCC[C@@H]3NC(=O)c3cc(-c4cnn(C)c4)cnc3N)cc2)ccc1CN1CCN(C)CC1` [Example 198, 2-amino-5-(1-methyl-1H-pyrazol-4-yl)-N-((1S,2S)-2-((3′-methyl-4′-((4-methylpiperazin-1-yl)methyl)-[1,1′-biphenyl]-4-yl)methoxy)cyclopentyl)-nicotinamide], the IC50 in experiment [1] (setting [3]) is less than 10 nM. For the same compound, in experiment [2], the GI50 is less than 100 nM.

Regarding `CCc1cc(CO[C@H]2CNC[C@@H]2NC(=O)c2cc(-c3cnn(C)c3)cnc2N)ccc1C` [Example 388, 2-amino-N-((3S,4S)-4-((3-ethyl-4-methylbenzyl)oxy)pyrrolidin-3-yl)-5-(1-methyl-1H-pyrazol-4-yl)nicotinamide], the IC50 in experiment [1] is less than 10 nM. In experiment [2], the GI50 lay within 100 to 500 nM.

As to `CN1CCN(Cc2ccc(-c3ccc(CO[C@H]4CN(C)C[C@@H]4NC(=O)c4cc(-c5cnn(C)c5)cnc4N)cc3)cc2C(F)(F)F)CC1` [Example 437, 2-amino-5-(1-methyl-1H-pyrazol-4-yl)-N-((3S,4S)-1-methyl-4-((4′-((4-methylpiperazin-1-yl)methyl)-3′-(trifluoromethyl)-[1,1′-biphenyl]-4-yl)-methoxy)pyrrolidin-3-yl)nicotinamide], the IC50 in experiment [1] (setting [3]) was less than 10 nM. For the same compound, in experiment [2], the GI50 was less than 100 nM.

Take `C[C@@H]1CN(Cc2ccc(-c3ccc(CO[C@H]4CCC[C@@H]4NC(=O)c4cc(-c5cnn(C)c5)cnc4N)cc3)cc2)C[C@H](C)N1` [Example 189, 2-amino-N-((1S,2S)-2-((4′-((cis-3,5-dimethylpiperazin-1-yl)-methyl)-[1,1′-biphenyl]-4-yl)methoxy)cyclopentyl)-5-(1-methyl-1H-pyrazol-4-yl)-nicotinamide]: the IC50 in experiment [1] (setting [3]) was less than 10 nM. Also, the GI50 in experiment [2] fell in the range of 100 to 500 nM.

Consider `CN1CCN(C(C)(C)c2ccc(-c3ccc(CO[C@H]4CCC[C@@H]4NC(=O)c4cc(-c5ccc(F)nc5)cnc4N)cc3)cc2)CC1` [Example 225, 6-amino-6′-fluoro-N-((1S,2S)-2-((4′-(2-(4-methylpiperazin-1-yl)propan-2-yl)-[1,1′-biphenyl]-4-yl)methoxy)cyclopentyl)-[3,3′-bipyridine]-5-carboxamide], for which the IC50 in experiment [1] (setting [3]) was less than 10 nM. In addition, the GI50 in experiment [2] was 100 to 500 nM.

With `CCc1cc(CO[C@H]2CN(C)C[C@@H]2NC(=O)c2cc(-c3cnn(C4CCN(C)CC4)c3)cnc2N)ccc1C` [Example 433, 2-amino-N-((3S,4S)-4-((3-ethyl-4-methylbenzyl)oxy)-1-methylpyrrolidin-3-yl)-5-(1-(1-methylpiperidin-4-yl)-1H-pyrazol-4-yl)nicotinamide], the IC50 in experiment [1] (setting [3]) was less than 10 nM. The GI50 in experiment [2] lay in the range of 100 to 500 nM.

Take `C[C@@H]1CN(C)[C@@H](C)CN1Cc1ccc(-c2ccc(CO[C@H]3CCC[C@@H]3NC(=O)c3cc(-c4cnn(C)c4)cnc3N)cc2)cc1` [Example 192, 2-amino-5-(1-methyl-1H-pyrazol-4-yl)-N-((1S,2S)-2-((4′-(((2R,5S)-2,4,5-trimethylpiperazin-1-yl)methyl)-[1,1′-biphenyl]-4-yl)methoxy)cyclopentyl)nicotinamide]: the IC50 in experiment [1] (setting [3]) is less than 10 nM. Moreover, the GI50 in experiment [2] was less than 100 nM.

Turning to `Cn1cc(-c2cnc(N)c(C(=O)N[C@H]3CCC[C@@H]3OCc3ccc(-c4ccc(CN5CCC(O)CC5)cc4)cc3)c2)cn1` [Example 180, 2-amino-N-((1S,2S)-2-((4′-((4-hydroxypiperidin-1-yl)methyl)-[1,1′-biphenyl]-4-yl)methoxy)cyclopentyl)-5-(1-methyl-1H-pyrazol-4-yl)nicotinamide], in experiment [1] (setting [3]), the IC50 was less than 10 nM. Further, the GI50 in experiment [2] is more than 1000 nM.

Take `Cn1cc(-c2cnc(N)c(C(=O)N[C@H]3CCC[C@@H]3OCc3ccc(-c4ccc(CN5CCN(CCO)CC5)cc4)cc3)c2)cn1` [Example 181, 2-amino-N-((1S,2S)-2-((4′-((4-(2-hydroxyethyl)piperazin-1-yl)-methyl)-[1,1′-biphenyl]-4-yl)methoxy)cyclopentyl)-5-(1-methyl-1H-pyrazol-4-yl)-nicotinamide]: the half-inhibitory concentration (IC50) in experiment [1] (setting [3]) is less than 10 nM. Further, in experiment [2], the GI50 is less than 100 nM.

For `CC(c1ccc(-c2ccc(CO[C@H]3CNC[C@@H]3NC(=O)c3cc(-c4cnn(C)c4)cnc3N)cc2)cc1)N1CCN(CCO)CC1` (stereo partly drawn) [Example 442, 2-amino-N-((3S,4S)-4-((4′-(1-(4-(2-hydroxyethyl)piperazin-1-yl)ethyl)-[1,1′-biphenyl]-4-yl)methoxy)pyrrolidin-3-yl)-5-(1-methyl-1H-pyrazol-4-yl)nicotinamide], in experiment [1] (setting [3]), the IC50 is less than 10 nM. Besides, in experiment [2], the GI50 is more than 1000 nM.

`Cn1cc(-c2cnc(N)c(C(=O)N[C@H]3CCC[C@@H]3OCc3ccc(-c4ccc(C5(N6CCN(CCO)CC6)CC5)cc4)cc3)c2)cn1` [Example 220, 2-amino-N-((1S,2S)-2-((4′-(1-(4-(2-hydroxyethyl)piperazin-1-yl)cyclopropyl)-[1,1′-biphenyl]-4-yl)methoxy)cyclopentyl)-5-(1-methyl-1H-pyrazol-4-yl)nicotinamide]: the IC50 in experiment [1] (setting [3]) was less than 10 nM. Also, the GI50 in experiment [2] was less than 100 nM.

Turning to `C[C@@H](c1ccc(-c2ccc(CO[C@H]3CCC[C@@H]3NC(=O)c3cc(-c4ccc(F)nc4)cnc3N)cc2)cc1)N1CCN(CCO)CC1` [Example 226, 6-amino-6′-fluoro-N-((1S,2S)-2-((4′-((S)-1-(4-(2-hydroxyethyl)piperazin-1-yl)ethyl)-[1,1′-biphenyl]-4-yl)methoxy)cyclopentyl)-[3,3′-bipyridine]-5-carboxamide], the IC50 in experiment [1] (setting [3]) was less than 10 nM. The GI50 in experiment [2] was less than 100 nM.
